In PubChem BioAssay (NCI):
“And” between values parts separate entries of the source, which are not always exact repeats. Identical values can stand only once.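 Protocol summary: plate cells (96-well), add compound at 5 concentrations, incubate 48 h, interpolate endpoints linearly. GI50: concentration for 50% inhibition of growth. At the TGI there is no net growth.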

Experiments:
Assay in all cases: growth of human tumour cells (NCI), 48 h
SF-268 CNS = system: SF-268 CNS
SNB-19 CNS = system: SNB-19 CNS
A549 NSCLC = system: A549 NSCLC
SK-OV-3 ovarian = system: SK-OV-3 ovarian
COLO 205 colon = system: COLO 205 colon
RPMI-8226 leukemia = system: RPMI-8226 leukemia
SK-MEL-2 melanoma = system: SK-MEL-2 melanoma
UACC-257 melanoma = system: UACC-257 melanoma
OVCAR-8 ovarian = system: OVCAR-8 ovarian
HCC-2998 colon = system: HCC-2998 colon

| Structure (SMILES) | TGI (SF-268 CNS) | TGI (SNB-19 CNS) | TGI (A549 NSCLC) | TGI (SK-OV-3 ovarian) [µM] | TGI (COLO 205 colon) | TGI (RPMI-8226 leukemia) [µM] | TGI (SK-MEL-2 melanoma) [µM] | TGI (UACC-257 melanoma) [µM] | TGI (OVCAR-8 ovarian) | GI50 (SF-268 CNS) [µM] | GI50 (SNB-19 CNS) | GI50 (A549 NSCLC) [µM] | GI50 (SK-OV-3 ovarian) [µM] | GI50 (COLO 205 colon) [µM] | GI50 (SK-MEL-2 melanoma) [µM] | GI50 (UACC-257 melanoma) | GI50 (OVCAR-8 ovarian) [µM] | GI50 (HCC-2998 colon) [µM] | TGI (HCC-2998 colon) | GI50 (RPMI-8226 leukemia) |
| --- | --- | --- | --- | --- | --- | --- | --- | --- | --- | --- | --- | --- | --- | --- | --- | --- | --- | --- | --- | --- |
| c1ccc2c(c1)[Se]c1ccccc1[Se]2 | > 100 µM | > 100 µM | > 100 µM | > 100 | > 100 µM | > 100 | > 100 | > 100 | > 100 µM |  |  |  |  |  |  |  |  |  |  |  |
| COc1ccc(/C=C2/CCOC2=O)cc1 | > 100 µM | > 100 µM | > 100 µM | > 100 | > 100 µM |  | > 100 | > 100 | > 100 µM | > 100 | > 100 µM | > 100 | > 100 | > 100 | > 100 | > 100 µM | > 100 |  |  |  |
| NC(N)=NS(=O)(=O)c1ccc(NC(=O)c2ccc(Cl)c3c(Nc4ccc(S(=O)(=O)N=C(N)N)cc4)c4ccccc4nc23)cc1 | > 100 µM | > 100 µM | > 100 µM | > 100 | > 100 µM | > 100 | > 100 | > 100 | > 100 µM |  |  |  |  |  |  |  |  |  |  |  |
| CCOc1ccc2c(-c3ccnc(Nc4cccc(C(F)(F)F)c4)n3)cnn2n1 | > 19.6 µM | > 25 µM | 9.19 µM | 18.9 | > 25 µM | > 25 |  | > 25 | 11.7 µM | 7.87 | 13.6 µM | 4.4 | 8.11 | > 25 |  | > 25 µM | 5.44 | 22.4 | > 25 µM | > 25 µM |
| CC(=O)N1C(=O)C(=O)c2cc(Cl)ccc21 | > 100 µM | > 100 µM | > 100 µM | > 100 | > 100 µM | > 100 |  |  | > 100 µM |  |  |  |  |  |  |  |  |  | > 100 µM |  |
| O=C1c2ccccc2C(=O)c2c1c(NCCNCCO)c1cc[nH]c1c2NCCNCCO | 5.28 µM | 12.9 µM | 27.2 µM | 13.6 | > 33.3 µM | 47.8 |  | 29.9 | 40.5 µM | 0.935 | 1.26 µM | 5.46 | 2.85 | 2.48 |  | 7.06 µM | 2.42 | 3.18 | 17.2 µM | 13.9 µM |
| COc1cccc(C(=O)O)c1Cc1cccc2ccccc12 | > 100 µM | > 100 µM | > 100 µM | > 100 | > 100 µM |  | > 100 | > 100 | > 100 µM |  |  |  |  |  |  |  |  |  | > 100 µM |  |
| CP(=O)(CCSc1ccccc1)c1ccccc1 (stereo not given) | > 100 µM | > 100 µM | > 100 µM | > 100 | > 100 µM | > 100 |  | > 100 | > 100 µM |  |  |  |  |  |  |  |  |  | > 100 µM |  |
| C=CC1(C)/C(=N\O)C(C)(CC)C(=O)N1O (stereo not given) | > 100 µM | > 100 µM | > 100 µM | > 100 | > 100 µM |  | > 100 | > 100 | > 100 µM |  |  |  |  |  |  |  |  |  |  |  |
| O=c1c2cc(-c3ccccc3)sc2nc2sc(-c3ccccc3)nn12 | > 100 µM | > 100 µM | > 100 µM | > 100 | > 100 µM | > 100 | > 100 | > 100 | > 100 µM |  |  |  |  |  |  |  |  |  |  |  |
| N#C/C(=C/c1cccs1)c1cccs1 | > 100 µM | > 100 µM | > 100 µM | > 100 | > 100 µM |  | > 100 | > 100 | > 100 µM | > 100 | > 100 µM | > 100 | > 100 | > 100 | > 100 | > 100 µM | > 100 | > 100 | > 100 µM |  |
| CCCN(CCC)c1ccc(C=O)c(OC)c1 | > 100 µM | > 100 µM | > 100 µM | > 100 | 63.4 µM | > 100 |  | 61.2 | > 100 µM | 22 | 29.4 µM | 28.3 | 25.8 | 22.3 |  | 18.5 µM | 27.5 | 24.9 | > 100 µM | 58.6 µM |
| CN1CCN(c2ccc3nc(-c4ccc5nc(-c6ccc(C(F)(F)F)cc6)[nH]c5c4)[nH]c3c2)CC1 | 3.93 µM |  | 3.91 µM |  | 2.93 µM | 4.51 | 3.5 | 3.42 | 4.7 µM | 1.97 |  | 1.94 |  | 1.37 | 1.87 | 1.75 µM | 2.02 | 1.98 | 3.57 µM | 2.06 µM |
| CC[O+]=c1cccc2ssnc1-2 | > 100 µM | > 100 µM | > 100 µM | > 100 | > 100 µM |  | > 100 | > 100 | > 100 µM |  |  |  |  |  |  |  |  |  | > 100 µM |  |
| CC1=C(CC/C(C)=C/CCC2(C)CCC([C@H](C)C(=O)O)OO2)C(C)(C)CCC1 (stereo not given in full) (tested in a mixture with another compound) | > 100 µM | > 100 µM | > 100 µM |  | > 100 µM |  | > 100 | > 100 | > 100 µM |  |  |  |  |  |  |  |  |  | > 100 µM |  |
| COc1ccc2c(CCNS(=O)(=O)c3ccccc3)c(C(C)=O)[nH]c2c1[N+](=O)[O-] | > 100 µM | > 100 µM | > 100 µM |  | > 100 µM | > 100 | > 100 | > 100 | > 100 µM |  |  |  |  |  |  |  |  |  | > 100 µM |  |
| c1ccc(CN2CCC3(CC2)ONC2=NCCN23)cc1 | > 100 µM | > 100 µM | > 100 µM | > 100 | > 100 µM |  | > 100 | > 100 | > 100 µM | 89.8 | > 100 µM | 88.4 | 60.8 | 50.4 | > 100 | > 100 µM | 60.9 |  |  |  |
| CCN(CC)CCNc1ccc(CO)c2sc3ccccc3c(=O)c12 | 16.3 µM and 21.2 µM and 20.9 µM | 29.1 µM [middle of 4 runs] | 13.6 µM and 21.4 µM and 18.2 µM |  | 3 µM and 13.9 µM and 18 µM |  |  |  | 14 µM and 17.8 µM | 3.62 | 3.54 µM and 13.3 µM and 14.1 µM | 3.2 |  |  |  | 1.7 µM and 3.79 µM | 2.42 |  | 25.2 µM [middle of 4 runs] | 2.51 µM and 1.59 µM |
| S=C(S)NCCCn1ccnc1 | > 100 µM | > 100 µM | > 100 µM | > 100 | > 100 µM | > 100 | > 100 | > 100 | > 100 µM |  |  |  |  |  |  |  |  |  |  |  |
| CC(C)(C)OC(=O)N(CCCn1c2c(c3ccccc3c1=O)C(=O)c1ccccc1-2)CCN(CCCn1c2c(c3ccccc3c1=O)C(=O)c1ccccc1-2)C(=O)OC(C)(C)C | > 50 µM | > 50 µM | > 50 µM | > 50 | > 50 µM | > 50 | > 50 | > 50 | > 50 µM | 23.8 | 37.8 µM | 25.4 | > 50 | > 50 | > 50 | > 50 µM | 24.6 |  |  | 12.1 µM |
| COc1ccc2c3c([nH]c2c1[N+](=O)[O-])C(C)N(C(=O)/C=C/c1ccccc1)CC3 (stereo not given) | 4.75 µM | > 100 µM | 29.2 µM |  | > 100 µM | 9.66 | > 100 | > 100 | > 100 µM |  |  |  |  |  |  |  |  |  | > 100 µM |  |
| COC(=O)/C1=C/C2CC(/C=C(/c3ccccc3)C(=O)O1)C2 |  | > 100 µM | > 100 µM | 72.9 | 41.7 µM | 64.7 |  | 23.2 | 80.6 µM |  |  |  |  |  |  |  |  |  |  |  |
| O=C(O)C1(C(=O)O)CCN(S(=O)(=O)c2ccccc2)CC1 | > 100 µM | > 100 µM | > 100 µM | > 100 | > 100 µM | > 100 | > 100 | > 100 | > 100 µM |  |  |  |  |  |  |  |  |  |  |  |
| NC(CCc1nc(-c2ccccc2)cs1)C(=O)O (stereo not given) |  | > 100 µM | > 100 µM | > 100 | > 100 µM | > 100 |  | > 100 | > 100 µM |  |  |  |  |  |  |  |  |  | > 100 µM |  |
| CC(C)c1cccc2sc(NC(=O)C(=O)CC(=O)c3ccc(F)cc3)nc12 | > 100 µM | > 100 µM | > 100 µM | > 100 | > 100 µM | > 100 | > 100 | > 100 | > 100 µM |  |  |  |  |  |  |  |  |  |  |  |
| CC(=O)c1ccc(NCn2nc(-c3ccccc3O)oc2=S)cc1 | > 100 µM | > 100 µM | > 100 µM |  | > 100 µM |  | > 100 | > 100 | > 100 µM | > 100 | > 100 µM | 37.8 |  | 43.4 | > 100 | > 100 µM | > 100 | 27.8 | 66.2 µM |  |
| COc1cc2c(C#N)n3c(c2cc1OC)C(=O)C(c1ccccc1)Oc1ccccc1-3 (stereo not given) | > 100 µM | > 100 µM | > 100 µM | > 100 |  |  |  |  | > 100 µM | 3.32 | 3.53 µM | 2.87 | 21.1 |  |  |  | 2.76 | > 100 | > 100 µM |  |
| O=S(O)CCCCSSCCCCS(=O)(O)=S | > 100 µM | > 100 µM | > 100 µM | > 100 | > 100 µM |  | > 100 | > 100 | > 100 µM |  |  |  |  |  |  |  |  |  | > 100 µM |  |
